The text below walks through data of patent US12679807B2 (MERCK SHARP & DOHME LLC, priority 2020, dated 2026).

Broadly, the pEC50 is the EC50 on a negative log10 scale, so that one unit is a factor of ten. Lower therefore signals a high EC50.

pEC50: −log10 of the molar value.

For this test, the target named is T1, GCS enzyme contained within Golgi preparations isolated from human A375 malignant melanoma skin cells (Homo sapiens, UniProt Q16739).
T1 construct: endogenous levels of GCS enzyme contained within Golgi preparations isolated from human A375 malignant melanoma skin cells; endogenous in cells; host or cells: A375 human malignant melanoma cells (crude Golgi preparation)
T1 sequence (Q16739 1-394): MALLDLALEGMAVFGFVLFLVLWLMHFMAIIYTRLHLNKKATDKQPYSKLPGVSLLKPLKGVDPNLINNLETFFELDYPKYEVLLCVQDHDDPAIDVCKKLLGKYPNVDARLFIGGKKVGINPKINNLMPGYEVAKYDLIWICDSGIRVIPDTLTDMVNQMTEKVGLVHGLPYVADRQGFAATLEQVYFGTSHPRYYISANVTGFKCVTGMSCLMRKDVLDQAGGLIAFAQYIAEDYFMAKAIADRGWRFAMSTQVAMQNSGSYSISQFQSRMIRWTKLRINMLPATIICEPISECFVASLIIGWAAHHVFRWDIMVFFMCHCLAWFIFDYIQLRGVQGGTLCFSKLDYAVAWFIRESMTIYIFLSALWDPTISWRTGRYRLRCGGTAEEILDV
Description: UDP-Glo glucosylceramide synthase biochemical assay. As to conditions: crude Golgi preparation from A375 cells; C6 ceramide and UDP-glucose substrates; 20 h incubation at room temperature; UDP detected by luminescence. From the text:
UDP-Glo™ Glucosylceramide Synthase Biochemical Assay
A UDP-Glo™ glucosylceramide synthase biochemical assay was utilized to evaluate the effect of test compounds on the activity of endogenous levels of GCS enzyme contained within Golgi preparations isolated from human A375 malignant melanoma skin cells. The UDP-Glo™ glucosylceramide synthase assay uses UDP-Glucose as a nucleotide-glycosyl donor and ceramide as substrate acceptor molecules. In the reaction, glucosylceramide synthase (GCS) transfers glucose from UDP-Glucose to ceramide. Glucosylceramide and UDP are released as products.
Using Promega's UDP-Glo™ Glycosyltransferase assay kit (Promega Corporation, Madison, WI, USA (Promega)), GCS activity was indirectly measured by detecting the amount of UDP produced. An aliquot of GCS enzyme (1.5 μg crude golgi preparation, total protein) and titrated test compound were aliquoted to each well and incubated for 30 minutes at room temperature. […] An equivalent volume of substrate mixture was then added to each well. Following a 20 h incubation at room temperature to allow for GCS turnover of substrate, an equal volume of UDP detection reagent (Promega) was added to each well and incubated for an additional 75 minutes at room temperature to simultaneously convert the accumulated UDP product into ATP and generate light in a luciferase reaction. The generated light was detected using a luminometer. […] luminescence values (RLUs) were normalized to mean “min” and “max” effects, as determined on each plate. […] Values for % Emax and EC50 were determined by best-fitting the normalized data to a curve in Activity Base along a four-parameter logistic nonlinear regression (4PL) model (based on the Levenberg-Marquardt algorithm and defined by the equation below):
[formula] where: n is 4 PMin (bottom of the curve); m is 4 PMax (top of the curve); i is IP (inflection point of curve); and p is slope. See Levenberg, K., “A Method for the Solution of Certain Problems in Least Squares”, Quart. Appl. Math. […] Math.
For the molecule `Cc1cnc2c(c1C(=O)Nc1cccc3c1C(=O)N(C(C1CC1)C(C)(C)O)C3)OCO2` (single isomer, unassigned) [Compound 169, (R or S)—N-(2-(1-Cyclopropyl-2-hydroxy-2-methylpropyl)-3-oxoisoindolin-4-yl)-6-methyl-[1,3]dioxolo[4,5-b]pyridine-7-carboxamide], the pEC50 was 9.40.
Then `CC(C)(O)C(C1CC1)N1Cc2cccc(/C=C/c3ccnc4c3CCC4)c2C1=O` (single isomer, unassigned) [Compound 171, (R or S)-(E)-2-(1-Cyclopropyl-2-hydroxy-2-methylpropyl)-7-(2-(6,7-dihydro-5H-cyclopenta[b]pyridin-4-yl)vinyl)isoindolin-1-one], with 6.64; and `CC(C)(O)C(C1CC1)N1Cc2cccc(C#Cc3ccnc4c3CCC4)c2C1=O` (single isomer, unassigned) [Compound 172, (R or S)-2-(1-Cyclopropyl-2-hydroxy-2-methylpropyl)-7-((6,7-dihydro-5H-cyclopenta[b]pyridin-4-yl)ethynyl)isoindolin-1-one], with 8.01; and `CC(C)(O)C(C1CC1)N1Cc2cccc(CCc3ccnc4c3CCC4)c2C1=O` (single isomer, unassigned) [Compound 173, (R or S)-2-(1-Cyclopropyl-2-hydroxy-2-methylpropyl)-7-(2-(6,7-dihydro-5H-cyclopenta[b]pyridin-4-yl)ethyl)isoindolin-1-one], with 6.92.
The value for `CC(C)(O)C(C1CC1)N1Cc2cccc(/C=C/c3c(Cl)cnc4c3OCO4)c2C1=O` (single isomer, unassigned) [Compound 174, (R or S)-(E)-7-(2-(6-Chloro-[1,3]dioxolo[4,5-b]pyridin-7-yl)vinyl)-2-(1-cyclopropyl-2-hydroxy-2-methylpropyl)isoindolin-1-one] was 8.17; that for `Cc1cnc2c(c1/C=C/c1cccc3c1C(=O)N(C(C1CC1)C(C)(C)O)C3)OCO2` (single isomer, unassigned) [Compound 175, (R or S)-(E)-2-(1-Cyclopropyl-2-hydroxy-2-methylpropyl)-7-(2-(6-methyl-[1,3]dioxolo[4,5-b]pyridin-7-yl)vinyl)isoindolin-1-one] was 7.57; that for `Cc1cnc2c(c1CCc1cccc3c1C(=O)N(C(C1CC1)C(C)(C)O)C3)OCO2` (single isomer, unassigned) [Compound 176, (R or S)-2-(1-Cyclopropyl-2-hydroxy-2-methylpropyl)-7-(2-(6-methyl-[1,3]dioxolo[4,5-b]pyridin-7-yl)ethyl)isoindolin-1-one] was 7.85.
Then `CC(C)(O)C(C1CC1)N1Cc2cccc(COc3c(Cl)cnc4c3OCO4)c2C1=O` (single isomer, unassigned) [Compound 177, (R or S)-7-(((6-chloro-[1,3]dioxolo[4,5-b]pyridin-7-yl)oxy)methyl)-2-(1-cyclopropyl-2-hydroxy-2-methylpropyl)isoindolin-1-one], with 7.55; and `Cc1cnc2c(c1NCc1cccc3c1C(=O)N(C(C1CC1)C(C)(C)O)C3)OCO2` (single isomer, unassigned) [Compound 178, (R or S)-2-(1-Cyclopropyl-2-hydroxy-2-methylpropyl)-7-(((6-methyl-[1,3]dioxolo[4,5-b]pyridin-7-yl)amino)methyl)isoindolin-1-one], with 7.68; and `CC(C)(O)C(C1CC1)N1Cc2cccc(OCc3c(Cl)cnc4c3OCO4)c2C1=O` (single isomer, unassigned) [Compound 179, (R or S)-7-((6-chloro-[1,3]dioxolo[4,5-b]pyridin-7-yl)methoxy)-2-(1-cyclopropyl-2-hydroxy-2-methylpropyl)isoindolin-1-one], with 7.80.
In turn, `CC(C)(O)C(C1CC1)N1Cc2cccc(OCc3ccnc4c3CCC4)c2C1=O` (single isomer, unassigned) [Compound 180, (R or S)-2-(1-cyclopropyl-2-hydroxy-2-methylpropyl)-7-((6,7-dihydro-5H-cyclopenta[b]pyridin-4-yl)methoxy)isoindolin-1-one] showed a negative logarithm of the EC50 (pEC50) of 7.46.
The value for `Cc1cnc2c(c1COc1cccc3c1C(=O)N(C(C1CC1)C(C)(C)O)C3)OCO2` (single isomer, unassigned) [Compound 181] was 7.27; that for `Cc1nnc(-c2cccc(-c3cccc4c3C(=O)N([C@H](C3CC3)C(C)(C)O)C4)c2)o1` [Compound 13, (R)-2-(1-cyclopropyl-2-hydroxy-2-methylpropyl)-7-(3-(5-methyl-1,3,4-oxadiazol-2-yl)phenyl)isoindolin-1-one] was 6.59.
Then `Cc1nnc(-c2ccc(-c3c(F)ccc4c3C(=O)N([C@H](C3CC3)C(C)(C)O)C4)cc2F)o1` [Compound 22, (R)-2-(1-cyclopropyl-2-hydroxy-2-methylpropyl)-6-fluoro-7-(3-fluoro-4-(5-methyl-1,3,4-oxadiazol-2-yl)phenyl) isoindolin-1-one], with […]; and `Cc1cc(-c2ccc(-c3cc(F)cc4c3C(=O)N([C@H](C3CC3)C(C)(C)O)C4)cc2)on1` [Compound 26, (R)-2-(1-cyclopropyl-2-hydroxy-2-methylpropyl)-5-fluoro-7-(4-(3-methylisoxazol-5-yl)phenyl)isoindolin-1-one], with 9.00; and `Cc1nnc(-c2ccc(-c3cc(F)cc4c3C(=O)N([C@H](C3CC3)C(C)(C)O)C4)c(F)c2)o1` [Compound 27, (R)-2-(1-cyclopropyl-2-hydroxy-2-methylpropyl)-5-fluoro-7-(2-fluoro-4-(5-methyl-1,3,4-oxadiazol-2-yl)phenyl)isoindolin-1-one], with 8.85.
The value for `Cn1cc(-c2ccc(-c3nccc4c3C(=O)N([C@H](C3CC3)C(C)(C)O)C4)cc2)cn1` [Compound 29, (R)-2-(1-cyclopropyl-2-hydroxy-2-methylpropyl)-4-(4-(1-methyl-1H-pyrazol-4-yl)phenyl)-1,2-dihydro-3H-pyrrolo[3,4-c]pyridin-3-one] was 6.70.
`Cn1cc(-c2ccc(-c3cncc4c3C(=O)N([C@H](C3CC3)C(C)(C)O)C4)cc2)cn1` [Compound 32, (R)-2-(1-cyclopropyl-2-hydroxy-2-methylpropyl)-7-(4-(1-methyl-1H-pyrazol-4-yl)phenyl)-2,3-dihydro-1H-pyrrolo[3,4-c]pyridin-1-one] showed a negative logarithm of the EC50 (pEC50) of 7.24.
Then `Cn1cc(-c2ccc(-c3ccnc4c3C(=O)N([C@H](C3CC3)C(C)(C)O)C4)cc2)cn1` [Compound 34, (R)-6-(1-cyclopropyl-2-hydroxy-2-methylpropyl)-4-(4-(1-methyl-1H-pyrazol-4-yl)phenyl)-6,7-dihydro-5H-pyrrolo[3,4-b]pyridin-5-one], with 7.32; and `Cc1cc(-c2ccnc3c2C(=O)N([C@H](C2CC2)C(C)(C)O)C3)c(F)cc1-c1cnn(C)c1` [Compound 35, (R)-6-(1-cyclopropyl-2-hydroxy-2-methylpropyl)-4-(2-fluoro-5-methyl-4-(1-methyl-1H-pyrazol-4-yl)phenyl)-6,7-dihydro-5H-pyrrolo[3,4-b]pyridin-5-one], with 8.17; and `Cn1cc(-c2ccc(-c3ccc(Cl)c4c3C(=O)N([C@H](C3CC3)C(C)(C)O)C4)cc2)cn1` [Compound 37, (R)-4-chloro-2-(1-cyclopropyl-2-hydroxy-2-methylpropyl)-7-(4-(1-methyl-1H-pyrazol-4-yl)phenyl)isoindolin-1-one], with 9.62.
